# Results from patent US6855843B2, “Inhibitors of α4 mediated cell adhesion” (Tanabe Seiyaku Co., Ltd., priority 1998, dated 2005).
# pIC50: −log10 of the molar value.
# Target: T1, α4β7 (adhesion of RPMI cells to CS-1) (Homo sapiens, UniProt P13612+P26010)
# T1 construct: endogenous in cells
# T1 sequence (P13612 34-1032): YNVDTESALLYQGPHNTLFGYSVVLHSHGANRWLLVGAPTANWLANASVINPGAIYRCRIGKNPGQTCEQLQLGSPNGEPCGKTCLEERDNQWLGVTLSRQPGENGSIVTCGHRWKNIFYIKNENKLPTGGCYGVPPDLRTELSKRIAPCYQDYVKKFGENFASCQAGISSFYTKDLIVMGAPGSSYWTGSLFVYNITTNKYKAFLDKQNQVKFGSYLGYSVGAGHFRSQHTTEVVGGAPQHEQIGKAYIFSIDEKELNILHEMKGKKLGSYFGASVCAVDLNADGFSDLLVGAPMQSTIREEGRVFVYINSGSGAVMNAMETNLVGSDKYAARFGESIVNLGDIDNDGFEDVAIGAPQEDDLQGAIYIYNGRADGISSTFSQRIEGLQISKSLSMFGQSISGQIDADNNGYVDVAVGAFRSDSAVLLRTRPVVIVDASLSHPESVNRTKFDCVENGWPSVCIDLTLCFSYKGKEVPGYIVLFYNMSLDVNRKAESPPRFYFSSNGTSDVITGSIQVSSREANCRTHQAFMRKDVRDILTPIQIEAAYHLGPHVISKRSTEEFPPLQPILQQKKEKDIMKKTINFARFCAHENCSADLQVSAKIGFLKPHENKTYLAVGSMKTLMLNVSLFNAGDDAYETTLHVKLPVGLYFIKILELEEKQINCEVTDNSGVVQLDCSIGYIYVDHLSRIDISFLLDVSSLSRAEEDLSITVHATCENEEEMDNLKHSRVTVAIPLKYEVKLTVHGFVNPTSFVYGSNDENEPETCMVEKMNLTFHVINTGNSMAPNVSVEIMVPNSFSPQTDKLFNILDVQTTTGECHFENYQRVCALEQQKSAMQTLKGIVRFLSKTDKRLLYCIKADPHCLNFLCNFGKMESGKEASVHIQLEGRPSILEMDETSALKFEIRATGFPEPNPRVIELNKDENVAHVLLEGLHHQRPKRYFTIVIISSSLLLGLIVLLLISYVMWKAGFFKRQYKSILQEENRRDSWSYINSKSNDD
# T1 sequence (P26010 20-798): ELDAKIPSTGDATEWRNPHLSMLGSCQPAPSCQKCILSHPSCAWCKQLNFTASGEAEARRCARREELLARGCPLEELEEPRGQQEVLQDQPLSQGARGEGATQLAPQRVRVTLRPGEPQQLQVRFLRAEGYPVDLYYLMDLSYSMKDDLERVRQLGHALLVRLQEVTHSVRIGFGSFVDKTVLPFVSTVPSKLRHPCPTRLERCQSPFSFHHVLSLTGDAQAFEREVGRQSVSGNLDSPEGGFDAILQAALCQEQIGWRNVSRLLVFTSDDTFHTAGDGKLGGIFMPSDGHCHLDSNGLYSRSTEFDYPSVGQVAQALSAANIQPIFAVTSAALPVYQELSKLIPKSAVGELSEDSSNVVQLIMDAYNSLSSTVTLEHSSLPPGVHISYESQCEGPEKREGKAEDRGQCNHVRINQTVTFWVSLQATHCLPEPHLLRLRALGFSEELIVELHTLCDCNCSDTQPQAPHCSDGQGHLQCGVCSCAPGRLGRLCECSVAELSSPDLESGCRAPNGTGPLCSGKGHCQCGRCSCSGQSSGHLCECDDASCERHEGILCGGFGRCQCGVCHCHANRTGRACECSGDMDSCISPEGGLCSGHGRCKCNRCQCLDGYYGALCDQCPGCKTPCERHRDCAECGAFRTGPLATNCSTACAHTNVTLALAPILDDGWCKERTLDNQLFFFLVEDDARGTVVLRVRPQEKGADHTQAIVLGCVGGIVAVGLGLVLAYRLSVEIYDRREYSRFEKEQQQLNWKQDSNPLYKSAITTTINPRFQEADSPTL
# Assay: RPMI-CS-1 cell adhesion assay
# Format: cell-based
# Conditions: adhesion of RPMI B-cell line (expresses α4β7) to CS-1 peptide coated microwells; read-out: RPMI-CS-1 IC50 value range
# Experimental: RPMI-CS-1 Cell Adhesion Assay:
# The test compounds were added in increasing concentrations to RPMI cells and then the cell-compound mixture was added to CS-1 coated microwells. The plates were incubated, washed and the percentage of attached cells were quantitated.
# The CS-1 derived peptide, […], and the scrambled control peptide, […], were synthesized at Tanabe Research Laboratories, USA, Inc. on a Beckman 990 synthesizer using t-Boc methodology. […] Microtiter plates were coated with 20 μg/ml human serum albumin (HSA) for 2 hours at room temperature, washed once with PBS and derivatized with 10 μg/ml SPDP for 1 hour. […] Unbound peptide was removed from the plates by washing with PBS. To block non-reacted sites, the plates were coated with 100 μl of a 2.5 mg/ml BSA solution in PBS for one hour at 37° C. 100 μl of RPMI cells (2.5×10^6 cells/ml) in Dulbecco's Modified Eagles Medium (DMEM) plus 0.25% ovalbumin were added to peptide coated dishes and incubated for 1 hour at 37° C. […] To do this, the enzyme substrate p-nitrophenyl-N-acetyl-β-D-glucoseaminide is dissolved at 7.5 mM in 0.1 M citrate buffer pH 5 and then mixed with an equal volume of 0.5% Triton X100. 50 μl of the substrate solution was added to the plates and the plates were incubated at 37° C. for 60 minutes.
# In this assay, IC50 value ranges (μM) are depicted by A, B, C and D. These ranges as follows. D>5≧C>1≧B>0.3≧A
row,pIC50,Structure (SMILES)
1,6.00 to 6.52,"O=C(O)C=Cc1ccccc1-c1ccc(C[C@H](NC(=O)c2c(Cl)cccc2Cl)C(=O)O)cc1 (mixture of isomers) [Example 49, N-(2,6-Dichlorobenzoyl)-4-[2-(2-carboxyethenyl)phenyl]-L-phenylalanine]"
2,> 6.52,"C[S+]([O-])c1ccccc1-c1ccc(C[C@H](NC(=O)c2c(Cl)cccc2Cl)C(=O)O)cc1 (single isomer, unassigned) [Example 152A, N-(2,6-dichloro-benzoyl)-4-[2-(methylsulfinyl)phenyl]-L-phenylalanine]"
3,6.00 to 6.52,"C[S+]([O-])c1ccccc1-c1ccc(C[C@H](NC(=O)c2c(Cl)cccc2Cl)C(=O)O)cc1 (single isomer, unassigned) [Example 152C, N-(2,6-dichloro-benzoyl)-4-[2-(methylsulfinyl)phenyl]-L-phenylalanine]"
4,6.00 to 6.52,"COC(=O)[C@H](Cc1ccc(-c2ccccc2OC)cc1)NC(=O)c1c(Cl)cccc1Cl [Example 1A, N-(2,6-Dichlorobenzoyl)-4-(2-methoxyphenyl)-L-phenylalanine methyl ester]"
5,5.30 to 6.00,"COc1ccccc1-c1ccc(C[C@H](NC(=O)[C@@H](C)c2ccccc2)C(=O)O)cc1 [Example 2, N-[(S)-2-Phenylpropionyl]-4-(2-methoxyphenyl)-L-phenylalanine]"
6,> 6.52,"COc1cccc(OC)c1-c1ccc(C[C@H](NC(=O)c2c(F)cccc2F)C(=O)O)cc1 [Example 3, N-(2,6-Difluorobenzoyl)-4-(2,6-dimethoxyphenyl)-L-phenylalanine]"
7,5.30 to 6.00,"COC(=O)[C@H](Cc1ccc(-c2cccs2)cc1)NC(=O)c1c(Cl)cccc1Cl [Example 4A, N-(2,6-Dichlorobenzoyl)-4-(2-thienyl)-L-phenylalanine methyl ester]"
8,6.00 to 6.52,"O=C(N[C@@H](Cc1ccc(-c2cccs2)cc1)C(=O)O)c1c(Cl)cccc1Cl [Example 4B, N-(2,6-Dichlorobenzoyl)-4-(2-thienyl)-L-phenylalanine]"
9,> 6.52,"COC(=O)[C@H](Cc1ccc(-c2c(OC)cccc2OC)cc1)NC(=O)c1c(Cl)cccc1Cl [Example 7A, N-(2,6-Dichlorobenzoyl)-4-(2,6-dimethoxyphenyl)-L-phenylalanine methyl ester]"
10,> 6.52,"COc1ccccc1-c1ccc(C[C@H](NC(=O)c2c(Cl)cccc2Cl)C(=O)O)cc1 [Example 8, N-(2,6-Dichlorobenzoyl)-4-(2-methoxyphenyl)-L-phenylalanine]"
11,> 6.52,"COc1ccc(-c2ccc(C[C@H](NC(=O)c3c(Cl)cccc3Cl)C(=O)O)cc2)c(OC)c1 [Example 9, N-(2,6-Dichlorobenzoyl)-4-(2,4-dimethoxyphenyl)-L-phenylalanine]"
12,> 6.52,"COc1ccc(OC)c(-c2ccc(C[C@H](NC(=O)c3c(Cl)cccc3Cl)C(=O)O)cc2)c1OC [Example 10, N-(2,6-Dichlorobenzoyl)-4-(2,3,6-trimethoxyphenyl)-L-phenylalanine]"
13,> 6.52,"COc1cc(OC)c(-c2ccc(C[C@H](NC(=O)c3c(Cl)cccc3Cl)C(=O)O)cc2)c(OC)c1 [Example 11, N-(2,6-Dichlorobenzoyl)-4-(2,4,6-trimethoxyphenyl)-L-phenylalanine]"
14,> 6.52,"COc1cc(Cl)cc(OC)c1-c1ccc(C[C@H](NC(=O)c2c(Cl)cccc2Cl)C(=O)O)cc1 [Example 12, N-(2,6-Dichlorobenzoyl)-4-(4-chloro-2,6-dimethoxyphenyl)-L-phenylalanine]"
15,> 6.52,"CCOc1cccc(OCC)c1-c1ccc(C[C@H](NC(=O)c2c(Cl)cccc2Cl)C(=O)O)cc1 [Example 13, N-(2,6-Dichlorobenzoyl)-4-(2,6-diethoxyphenyl)-L-phenylalanine]"
16,> 6.52,"CCOc1cccc(OC)c1-c1ccc(C[C@H](NC(=O)c2c(Cl)cccc2Cl)C(=O)O)cc1 [Example 14, N-(2,6-Dichlorobenzoyl)-4-(2-ethoxy-6-methoxyphenyl)-L-phenylalanine]"
17,6.00 to 6.52,"COC(=O)[C@H](Cc1ccc(-c2ccccc2S(=O)(=O)NC(C)(C)C)cc1)NC(=O)c1c(Cl)cccc1Cl [Example 15, N-(2,6-Dichlorobenzoyl)-4-[2-[N-(tert-butyl)sulfamoyl]phenyl]-L-phenylalanine methyl ester]"
18,> 6.52,"CC(C)(C)NS(=O)(=O)c1ccccc1-c1ccc(C[C@H](NC(=O)c2c(Cl)cccc2Cl)C(=O)O)cc1 [Example 16, N-(2,6-Dichlorobenzoyl)-4-[2-[N-(tert-butyl)sulfamoyl]phenyl]-L-phenylalanine]"
19,> 6.52,"NS(=O)(=O)c1ccccc1-c1ccc(C[C@H](NC(=O)c2c(Cl)cccc2Cl)C(=O)O)cc1 [Example 17, N-(2,6-Dichlorobenzoyl)-4-(2-sulfamoylphenyl)-L-phenylalanine]"
20,6.00 to 6.52,"O=C(NS(=O)(=O)c1ccccc1-c1ccc(C[C@H](NC(=O)c2c(Cl)cccc2Cl)C(=O)O)cc1)c1ccccc1 [Example 18, N-(2,6-Dichlorobenzoyl)-4-[2-(N-benzoylsulfamoyl)phenyl]-L-phenylalanine]"
21,5.30 to 6.00,"CC(=O)NS(=O)(=O)c1ccccc1-c1ccc(C[C@H](NC(=O)c2c(Cl)cccc2Cl)C(=O)O)cc1 [Example 19, N-(2,6-Dichlorobenzoyl)-4-[2-(N-acetylsulfamoyl)phenyl]-L-phenylalanine]"
22,> 6.52,"CNS(=O)(=O)c1ccccc1-c1ccc(C[C@H](NC(=O)c2c(Cl)cccc2Cl)C(=O)O)cc1 [Example 20, N-(2,6-Dichlorobenzoyl)-4-[2-(N-methylsulfamoyl)phenyl]-L-phenylalanine]"
23,> 6.52,"CN(C)S(=O)(=O)c1ccccc1-c1ccc(C[C@H](NC(=O)c2c(Cl)cccc2Cl)C(=O)O)cc1 [Example 21, N-(2,6-Dichlorobenzoyl)-4-[2-(N,N-dimethylsulfamoyl)phenyl]-L-phenylalanine]"
24,6.00 to 6.52,"Nc1ccccc1-c1ccc(C[C@H](NC(=O)c2c(Cl)cccc2Cl)C(=O)O)cc1 [Example 23, N-(2,6-Dichlorobenzoyl)-4-(2-aminophenyl)-L-phenylalanine]"
25,> 6.52,"CS(=O)(=O)Nc1ccccc1-c1ccc(C[C@H](NC(=O)c2c(Cl)cccc2Cl)C(=O)O)cc1 [Example 24, N-(2,6-Dichlorobenzoyl)-4-[2-(methanesulfonylamino)phenyl]-L-phenylalanine]"

row,Structure (SMILES),pIC50
1,"CC(C)(C)OC(=O)Nc1ccccc1-c1ccc(C[C@H](NC(=O)c2c(Cl)cccc2Cl)C(=O)O)cc1 [Example 22, N-(2,6-Dichlorobenzoyl)-4-[2-(tertbutoxycarbonylamino)phenyl]-L-phenylalanine]",5.30 to 6.00
